Source: US9242984B2, “Pyrazolyl derivatives as Syk inhibitors” (Merck Sharp & Dohme Corp., priority 2012, dated 2016)
pIC50: −log10 of the molar value.

biological target: T1, recombinant human Syk (GST-hSyk fusion protein) (Homo sapiens, UniProt P43405); experiment: Homogeneous Time-Resolved Fluorescence (HTRF) assay for the recombinant human Syk enzyme; type: biochemical; settings: 10-dose titration, 25 μM ATP; read-out: rhSYK IC50
T1 construct: purchased Carna Biosciences 08-176
How it was run: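 IC50 came from a four-parameter fit over ten doses, 10 μM to 0.508 nM, with HTRF read-out (Eu-anti-pTyr antibody, SA-APC, EDTA stop, 30 min). The enzyme, 5 pM GST-hSyk, met compound for 10 min, then phosphorylated 250 nM biotin-peptide with 25 μM ATP and 5 mM Mg for 45 min at room temperature, pH 7.5.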

| SMILES | pIC50 |
| --- | --- |
| Cc1cc(Nc2nccc(C)n2)cc(-c2cnn(C3CCCC(O)C3O)c2)c1 (centres unmarked) [Example 10.8, 3-(4-{3-methyl-5-[(4-methylpyrimidin-2-yl)amino]phenyl}-1H-pyrazol-1-yl)cyclohexane-1,2-diol] | 8.11 |
| Cc1cc(Nc2nccc(C(F)F)n2)cc(-c2cnn(CC3OC(=O)NC3CO)c2)c1 (single isomer, unassigned) [Example 33.1, 5-{[4-(3-{[4-(difluoromethyl)pyrimidin-2-yl]amino}-5-methylphenyl)-1H-pyrazol-1-yl]methyl}-4-(hydroxymethyl)-1,3-oxazolidin-2-one] | 8.80 |
| Cc1cc(Nc2nccc(C(F)(F)F)n2)cc(-c2cnn(CC(C)(O)C(N)=O)c2)c1 (single isomer, unassigned) [Example 8.1, (R or S) 2-hydroxy-2-methyl-3-[4-(3-methyl-5-{[4-(trifluoromethyl)pyrimidin-2-yl]amino}phenyl)-1H-pyrazol-1-yl]propanamide] | 9.00 |
| COc1ccnc(Nc2cc(C)cc(-c3cnn(CCC(=O)O)c3)c2)n1 [Example 2.1, 3-(4-(3-((4-methoxypyrimidin-2-yl)amino)-5-methylphenyl)-1H-pyrazol-1-yl)propanoic acid] | 7.66 |

same assay, conditions: IC50 class; 10-dose titration, 25 μM ATP; read-out: rhSYK Activity

| SMILES | pIC50 |
| --- | --- |
| Cc1cc(Nc2nccc(C(F)(F)F)n2)cc(-c2cnn(CCCN)c2)c1 [Example 3.20, N-{3-[1-(3-aminopropyl)-1H-pyrazol-4-yl]-5-methylphenyl}-4-(trifluoromethyl)pyrimidin-2-amine] | ≥ 7.00 |
| Cc1ccnc(Nc2cc(C)cc(-c3cnn(CCC(=O)O)c3)n2)c1 [Example 1.20, 3-(4-{4-methyl-6-[(4-methylpyridin-2-yl)amino]pyridin-2-yl}-1H-pyrazol-1-yl)propanoic acid] | 6.00 to 7.00 |
| Cc1cc(Nc2nccc(C(F)(F)F)n2)cc(-c2cn[nH]c2)c1 [Example 1.6, N-[3-methyl-5-(1H-pyrazol-4-yl)phenyl]-4-(trifluoromethyl)-pyrimidin-2-amine] | ≥ 7.00 |
| NC(=O)CCn1cc(-c2cccc(Nc3nccc(C(F)(F)F)n3)c2)cn1 [Example 2.15, 3-[4-(3-{[4-(trifluoromethyl)pyrimidin-2-yl]amino}phenyl)-1H-pyrazol-1-yl]propanamide] | ≥ 7.00 |
| Cc1cc(Nc2nccc(C(F)(F)F)n2)cc(-c2cnn(CCC(=O)O)c2)c1 [Example 1.2, 3-[4-(3-methyl-5-{[4-(trifluoromethyl)-pyrirnidin-2-yl]amino}-phenyl)-1H-pyrazol-1-yl]-propanoic acid] | ≥ 7.00 |
| Cc1cc(Nc2nccc(C)n2)cc(-c2cnn(C3CCCC(O)C3O)c2)c1 (centres unmarked) [Example 10.8, 3-(4-{3-methyl-5-[(4-methylpyrimidin-2-yl)amino]phenyl}-1H-pyrazol-1-yl)cyclohexane-1,2-diol] | ≥ 7.00 |
| Cc1cc(Nc2nccc(C(F)(F)F)n2)cc(-c2cnn(C[C@@H](O)CC#N)c2)c1 [Example 3.47, (3S)-3-hydroxy-4-[4-(3-methyl-5-{[4-(trifluoromethyl)pyrimidin-2-yl]amino}-phenyl)-1H-pyrazol-1-yl]butanenitrile] | ≥ 7.00 |
| Cc1cc(Nc2nccc(C(F)F)n2)cc(-c2cnn(CC3OC(=O)NC3CO)c2)c1 (single isomer, unassigned) [Example 33.1, 5-{[4-(3-{[4-(difluoromethyl)pyrimidin-2-yl]amino}-5-methylphenyl)-1H-pyrazol-1-yl]methyl}-4-(hydroxymethyl)-1,3-oxazolidin-2-one] | ≥ 7.00 |
| Cc1cc(Nc2nccc(C(F)F)n2)cc(-c2cnn(CC3(O)CCS(=O)(=O)CC3)c2)c1 [Example 5.42, 4-{[4-(3-{[4-(difluoromethyl)pyrimidin-2-yl]amino}-5-methylphenyl)-1H-pyrazol-1-yl]methyl}tetrahydro-2H-thiopyran-4-ol 1,1-dioxide] | ≥ 7.00 |
| CC(=O)Nc1cc(Nc2nccc(C(F)(F)F)n2)cc(-c2cnn(C3CCC(C(=O)O)CC3)c2)c1 (centres unmarked) [Example 1.52, 4-{4-[3-(acetylamino)-5-{[4-(trifluoromethyl)pyrimidin-2-yl]amino}phenyl]-1H-pyrazol-1-yl}cyclohexanecarboxylic acid] | ≥ 7.00 |
| Cc1cc(Nc2nccc(C(F)F)n2)cc(-c2cnn(CC(C)(O)CO)c2)c1 (single isomer, unassigned) [Example 25.3, 3-[4-(3-{[4-(difluoromethyl)pyrimidin-2-yl]amino}-5-methylphenyl)-1H-pyrazol-1-yl]-2-methylpropane-1,2-diol] | ≥ 7.00 |
| COc1nc(Nc2cc(C)cc(-c3cnn(C[C@](C)(O)CO)c3)c2)ncc1F [Example 2.89, (2S)-3-(4-{3-[(5-fluoro-4-methoxypyrimidin-2-yl)amino]-5-methylphenyl}-1H-pyrazol-1-yl)-2-methylpropane-1,2-diol] | ≥ 7.00 |
| Cc1cc(Nc2nccc(C(F)(F)F)n2)cc(-c2cnn(CC(C)(O)C(N)=O)c2)c1 (single isomer, unassigned) [Example 8.1, (R or S) 2-hydroxy-2-methyl-3-[4-(3-methyl-5-{[4-(trifluoromethyl)pyrimidin-2-yl]amino}phenyl)-1H-pyrazol-1-yl]propanamide] | ≥ 7.00 |
| Cc1cc(Nc2nccc(C(F)(F)F)n2)cc(-c2cnn(CC3OC(=O)NC3C)c2)c1 (single isomer, unassigned) [Example 23.2, 4-methyl-5-{[4-(3-methyl-5-{[4-(trifluoromethyl)pyrimidin-2-yl]amino}phenyl)-1H-pyrazol-1-yl]methyl}-1,3-oxazolidin-2-one] | ≥ 7.00 |
| Cc1cc(Nc2nccc(C(F)(F)F)n2)cc(-c2cnn(C(C)C(=O)O)c2)c1 (centres unmarked) [Example 3.35, 2-[4-(3-methyl-5-{[4-(trifluoromethyl)pyrimidin-2-yl]amino}-phenyl)-1H-pyrazol-1-yl]propanoic acid] | ≥ 7.00 |
| CCOC(Cn1cc(-c2cc(C)cc(Nc3nccc(C(F)(F)F)n3)c2)cn1)OCC [Example 3.23, N-{3-[1-(2,2-diethoxyethyl)-1H-pyrazol-4-yl]-5-methylphenyl}-4-(trifluoromethyl)pyrimidin-2-amine] | 6.00 to 7.00 |
| CCOC(=O)CCn1cc(-c2cc(C)cc(Nc3nccc(C(F)(F)F)n3)c2)cn1 [Example 2.43, ethyl 3-[4-(3-methyl-5-{[4-(trifluoromethyl)pyrimidin-2-yl]amino}phenyl)-1H-pyrazol-1-yl]propanoate] | ≥ 7.00 |

| SMILES | pIC50 |
| --- | --- |
| COc1ccnc(Nc2cc(C)cc(-c3cnn(CCC(=O)O)c3)c2)n1 [Example 2.1, 3-(4-(3-((4-methoxypyrimidin-2-yl)amino)-5-methylphenyl)-1H-pyrazol-1-yl)propanoic acid] | ≥ 7.00 |
| Cc1cc(Nc2cc(C(C)(F)F)ccn2)nc(-c2cnn(CC3CNC(=O)O3)c2)c1 (centres unmarked) [Example 3.86, 5-{[4-(6-{[4-(1,1-difluoroethyl)pyridin-2-yl]amino}-4-methylpyridin-2-yl)-1H-pyrazol-1-yl]methyl}-1,3-oxazolidin-2-one] | ≥ 7.00 |
| Cc1cc(Nc2nccc(C(F)F)n2)cc(-c2cnn(CCN)c2)c1 [Example 2.82, N-{3-[1-(2-aminoethyl)-1H-pyrazol-4-yl]-5-methylphenyl}-4-(difluoromethyl)pyrimidin-2-amine] | ≥ 7.00 |
| Cc1cc(Nc2nccc(C)n2)cc(-c2cnn(CC3(O)CCC3)c2)c1 [Example 29.5, 1-[(4-{3-methyl-5-[(4-methylpyrimidin-2-yl)amino]phenyl}-1H-pyrazol-1-yl)methyl}cyclobutanol] | ≥ 7.00 |
| Cc1cc(Nc2nccc(C(F)(F)F)n2)cc(-c2c(C)n[nH]c2C)c1 [Example 2.38, N-[3-(3,5-dimethyl-1H-pyrazol-4-yl)-5-methylphenyl]-4-(trifluoromethyl)pyrimidin-2-amine] | 6.00 to 7.00 |
| Cc1cc(Nc2nccc(C(F)(F)F)n2)cc(-n2ccc(Cl)n2)c1 [19.9] | 6.00 to 7.00 |
| Cc1cc(Nc2nccc(C(F)F)n2)cc(-c2cnn(CC(C)(C)NS(C)(=O)=O)c2)c1 [Example 27.4, N-{2-[4-(3-{[4-(difluoromethyl)pyrimidin-2-yl]amino}-5-methylphenyl)-1H-pyrazol-1-yl]-1,1-dimethylethyl}methanesulfonamide] | ≥ 7.00 |
| Cc1cc(Nc2nccc(C)n2)cc(-c2cnn(C[C@H](O)C(=O)O)c2)c1 [Example 11.3, (2S)-2-hydroxy-3-(4-{3-methyl-5-[(4-methylpyrimidin-2-yl)amino]phenyl}-1H-pyrazol-1-yl)-propanoic acid] | ≥ 7.00 |
| Cc1cc(Nc2nccc(OC(C)C)n2)cc(-c2cnn(C[C@](C)(O)CO)c2)c1 [Example 2.96, (2S)-2-methyl-3-[4-(3-methyl-5-{[4-(1-methylethoxy)pyrimidin-2-yl]amino}phenyl)-1H-pyrazol-1-yl]propane-1,2-diol] | ≥ 7.00 |
| COC(=O)[C@@H](O)Cn1cc(-c2cc(C)cc(Nc3nccc(C(F)(F)F)n3)c2)cn1 [Example 5.2, methyl (2S)-2-hydroxy-3-[4-(3-methyl-5-{[4-(trifluoromethyl)-pyrimidin-2-yl]amino}phenyl)-1H-pyrazol-1-yl]propanoate] | ≥ 7.00 |
| Cc1cc(Nc2nccc(C(F)F)n2)cc(-c2cnn(C(C)C(C)(O)CO)c2)c1 (centres unmarked) [Example 22.3, 3-[4-(3-{[4-(difluoromethyl)pyrimidin-2-yl]amino}-5-methylphenyl)-1H-pyrazol-1-yl]-2-methylbutane-1,2-diol] | ≥ 7.00 |
| Cc1cc(Nc2ncc(Cl)c(C)n2)cc(-c2cnn(C[C@](C)(O)CO)c2)c1 [Example 2.97, (2S)-3-(4-{3-[(5-chloro-4-methylpyrimidin-2-yl)amino]-5-methylphenyl}-1H-pyrazol-1-yl)-2-methylpropane-1,2-diol] | ≥ 7.00 |
| CCOC(=O)CCn1cc(-c2cc(C)cc(Nc3nccc(OC)n3)c2)cn1 [Example 2.3, ethyl 3-(4-{3-[(4-methoxypyrimidin-2-yl)amino]-5-methylphenyl}-1H-pyrazol-1-yl)-propanoate] | ≥ 7.00 |
| Cc1ccnc(Nc2cc(C)cc(-c3cnn(CC4(O)CCC4)c3)n2)c1 [Example 29.3, 1-[(4-{4-methyl-6-[(4-methylpyridin-2-yl)amino]pyridin-2-yl}-1H-pyrazol-1-yl)methyl}cyclobutanol] | ≥ 7.00 |
| Cc1cc(Nc2nccc(C(F)F)n2)cc(-c2cnn(CC(C)(C)NS(=O)(=O)C3CC3)c2)c1 [Example 27.5, N-{2-[4-(3-{[4-(difluoromethyl)pyrimidin-2-yl]amino}-5-methylphenyl)-1H-pyrazol-1-yl]-1,1-dimethylethyl}cyclopropanesulfonamide] | ≥ 7.00 |
| Cc1cc(Nc2nccc(C(F)(F)F)n2)cc(-c2cnn([C@@H](C)[C@@](C)(O)CO)c2)c1 (single isomer, unassigned) [Example 21.8, 2-methyl-3-[4-(3-methyl-5-{[4-(trifluoromethyl)pyrimidin-2-yl]amino}phenyl)-1H-pyrazol-1-yl]butane-1,2-diol] | ≥ 7.00 |
| Cc1cc(Nc2nccc(C(F)(F)F)n2)cc(-c2cnn(CC(C)(O)CC#N)c2)c1 (centres unmarked) [Example 20.2, 3-hydroxy-3-methyl-4-[4-(3-methyl-5-{[4-(trifluoromethyl)pyrimidin-2-yl]amino}phenyl)-1H-pyrazol-1-yl]butanenitrile] | ≥ 7.00 |
